Columns and labels:
[1] = test system: ov-NNMT NCI-H82 cell; experiment: Cell viability (Promega CellTiter-Glo, intracellular ATP), IC50 on NNMT-overexpressing NCI-H82 cell; assay type: cell-based; details: Homo sapiens; NCI-H82 cell overexpressing NNMT protein
From the text: (§1) The expression of NNMT protein in NCI-H82 cell was overexpressed by inserting the NNMT gene into NCI-H82 cell using a viral vector, and the NNMT protein-overexpressing NCI-H82 cell (ov-NNMT NCI-H82 cell) was obtained. The normal and untreated NCI-H82 cell (Con-NCI-H82 cell) was used as control. The expressing content of NNMT protein in the ov-NNMT NCI-H82 cell and Con-NCI-H82 cell was detected using Western Blot assay (as shown in FIG. 1), it could be seen from FIG. 1 that the NNMT protein was overexpressed in the ov-NNMT NCI-H82 cell compared with the expression level of NNMT protein in the Con-NCI-H82 cell.
(§2) The cell viability was detected using the Promega CellTiter-Glo kit which reflected cell viability by measuring intracellular ATP content. The Con-NCI-H82 cell and ov-NNMT NCI-H82 cell was cultured in 10% fetal bovine serum-containing RPMI1640 medium (+P/S).

[2] = test system: Con-NCI-H82 cell; experiment: Cell viability (Promega CellTiter-Glo, intracellular ATP), IC50 on Con-NCI-H82 cell; assay type: cell-based; details: Homo sapiens; normal untreated NCI-H82 cell (control)
From the text: as §1, §2

| Structure (SMILES) | IC50 [1] [µM] | IC50 [2] [µM] |
| --- | --- | --- |
| Cn1cc(Cc2ccccc2)c2cc[n+](C3CCc4ccc(OC(F)(F)F)cc4C3=O)cc21 (stereo not drawn) [AB27339] | 2.9 | 0.341 |
| O=C(Cn1cc(Cl)c2c[n+](Cc3ccccc3)ccc21)c1cccc(Cl)c1 [AB27269] | 2.18 | 0.233 |
| O=C1c2cc(Cl)ccc2CCC1n1cc(Cl)c2c[n+](Cc3ccccc3)ccc21 (stereo not drawn) [AB27271] | 0.567 | 0.034 |
| Cc1ccc(C(=O)C[n+]2cc3c(cc2Cl)c(Cc2ccccc2)cn3C)cc1 [AB27482] | 9.57 | 3.42 |
| Cc1cc(NCc2ccccc2)cc[n+]1CC(=O)c1cccc(C(F)(F)F)c1 [AB27275] | 0.886 | 0.063 |
| CC(c1ccccc1)n1cc2cc[n+](C3CCc4ccc(F)cc4C3=O)cc2c1 (stereo not drawn) [AB27480] | 2.33 | 0.181 |
| O=C(Cn1ncc2c[n+](Cc3ccccc3)ccc21)c1ccc(C(F)(F)F)cc1 [AB31705] | 19 | 5.37 |
| O=C(C[n+]1ccc2c(c1)CCC(c1ccccc1)N2)c1ccc(C(F)(F)F)cc1 (stereo not drawn) [AB27102] | 4.59 | 1.16 |
| O=C(Cn1c(Br)cc2c[n+](Cc3ccccc3)ccc21)c1cccc(C(F)(F)F)c1 [AB27490] | 0.319 | 0.019 |
| O=C1c2cc(Cl)ccc2CCC1[n+]1ccc2c(ccn2C(=O)c2ccccc2)c1 (stereo not drawn) [AB27214] | 6.7 | 1.74 |
| O=C(C[n+]1ccc(NCc2ccccc2)nc1)c1cccc(C(F)(F)F)c1 [AB27160] | 5.49 | 0.744 |
| CC(=O)C[n+]1ccc2c(ccn2C2CCc3ccc(Cl)cc3C2=O)c1 (stereo not drawn) [AB27313] | 7.36 | 4.37 |
| O=C1c2ccc(OC(F)(F)F)cc2CCC1[n+]1ccc2cn(Cc3ccccc3)cc2c1 (stereo not drawn) [AB27295] | 8.48 | 0.717 |
| O=C1c2cc(Cl)ccc2CCC1n1ccc2c[n+](Cc3cccc(Cl)c3)ccc21 (stereo not drawn) [AB27244] | 0.342 | 0.024 |
| O=C1c2cc(Cl)ccc2CCC1[n+]1ccc2c(ccn2CC2CC2)c1 (stereo not drawn) [AB27252] | 3.69 | 0.968 |
| CC(C)n1ccc2c[n+](C3CCc4ccc(C(F)(F)F)cc4C3=O)ccc21 (stereo not drawn) [AB27151] | 2.98 | 1.04 |
| CCC(=O)N(Cc1ccccc1)c1cc[n+](CC(=O)c2ccc(C)cc2)cc1 [AB27232] | 3.05 | 0.29 |
| O=C(Cn1ccc2c[n+](Cc3ccccc3)ccc21)c1cccc(Cl)c1 [AB27258] | 0.276 | 0.014 |

More lines, in order of falling IC50 [1], values ahead:

| IC50 [1] [µM] | Structure (SMILES) | IC50 [2] [µM] |
| --- | --- | --- |
| 12 | Cc1ccc2c(c1)C(=O)C([n+]1cnc3c(c1)CCC(c1ccccc1)N3)CC2 (stereo not drawn) [AB27137] | 4.36 |
| 6.53 | O=C1c2ccc(C(F)(F)F)cc2CCC1[n+]1ccc2cn(Cc3ccccc3)cc2c1 (stereo not drawn) [AB27294] | 1.05 |
| 6.43 | Cc1nc2c(s1)C(=O)C(n1ccc3c[n+](C(C)c4ccccc4)ccc31)CC2 (stereo not drawn) [AB27203] | 1.94 |
| 2.96 | CC(c1ccccc1)[n+]1ccc2c(cnn2C2CCc3ccc(Cl)cc3C2=O)c1 (stereo not drawn) [AB31806] | 0.257 |
| 1.98 | Cc1ccc(C(=O)C[n+]2ccc(N(Cc3ccccc3)C(=O)C(C)C)cc2)cc1 [AB27235] | 0.178 |
| 1.98 | O=C1c2cc(F)ccc2CCC1[n+]1ccc2cn(Cc3ccccc3)cc2c1 (stereo not drawn) [AB27477] | 0.164 |
| 1.54 | Cc1cc(NCc2ccccc2)cc[n+]1CC(=O)c1ccc(C(F)(F)F)cc1 [AB27273] | 0.187 |
| 1.35 | Cc1cn(C2CCc3ccc(C(F)(F)F)cc3C2=O)c2cc[n+](Cc3ccccc3)cc12 (stereo not drawn) [AB27464] | 0.175 |
| 1.13 | Cc1cc(NCc2ccccc2)cc[n+]1CC(=O)c1cccc(OC(F)(F)F)c1 [AB27276] | 0.092 |
| 0.754 | Cc1cn(CC(=O)c2cccc(Cl)c2)c2cc[n+](Cc3ccccc3)cc12 [AB27266] | 0.089 |
| 0.438 | Cc1cn(C2CCc3ccc(F)cc3C2=O)c2cc[n+](Cc3ccccc3)cc12 (stereo not drawn) [AB27460] | 0.034 |
| 0.332 | O=C1c2cc(F)ccc2CCC1n1ccc2c[n+](Cc3ccccc3)ccc21 (stereo not drawn) [AB27353] | 0.019 |
| 0.243 | Cc1ccc(C(=O)Cn2ccc3c[n+](Cc4ccccc4)ccc32)cc1 [AB27260] | 0.013 |
| 0.222 | CC(c1ccccc1)[n+]1ccc2c(ccn2C2CCc3ccc(F)cc3C2=O)c1 (stereo not drawn) [AB27354] | 0.013 |
| 0.184 | O=C1c2cc(Cl)ccc2CCC1n1ccc2c[n+](Cc3ccccc3Cl)ccc21 (stereo not drawn) [AB27243] | 0.015 |
